{"source": "patent US20260335294A1", "about": "“TREATING CONGENITAL DISORDERS OF GLYCOSYLATION” (Mayo Foundation for Medical Education and Research, priority 2022, published 2026)", "key": {"[1]": {"system": "PMM2-CDG patients", "experiment": "Nijmegen Pediatric CDG Rating Scale (NPCRS) in patients on epalrestat", "format": "in vivo, human", "excerpt": "(§1) The primary objective of the study was to assess the efficacy and safety of epalrestat treatment in 3 PMM2-CDG pediatric subjects prior to a planned Phase III clinical trial (Oral epalrestat therapy in Pediatric Subjects with PMM2-CDG, NCT04925960). The secondary objective was to assess the ability of epalrestat to improve clinically relevant aspects of PMM2-CDG such as increased urine polyols (sorbitol, mannitol), abnormal glycosylation (carbohydrate deficient transferrin), abnormal coagulation (ATIII=antithrombin III), impaired liver function (ALT=Alanine Transaminase, AST=Aspartate Transaminase), neurologic function (Brief Ataxia Rating Scale=BARS), severity of phenotype (Nijmegen Pediatric CDG Rating Scale=NPCRS). The ability of epalrestat to inhibit polyol production was monitored by evaluating urine polyol levels (sorbitol, mannitol), which are elevated in PMM2-CDG. Next, carbohydrate deficient transferrin, which is abnormal in PMM2-CDG, was evaluated in order to assess improvement of glycosylation following epalrestat treatment. CDT mono-oligo/dioligo ratio and a-oligo/dioligo ratio are used to evaluate glycosylation abnormalities. Transferrin normally occurs with two glycan chains (di-oligo). In the case of glycosylation abnormalities, glycan chains are missing (A-oligo transferrin has no glycan chains, mono-oligo has one glycan chain, di-oligo has two glycan chains). The higher ratio of a-oligo/di-oligo and mono-oligo/di-oligo indicate glycosylation abnormalities are present. Therefore, improvement in a-oligo/di-oligo and mono-oligo/di-oligo ratios can be used to monitor improvement or worsening of glycosylation status. Changes in the liver enzymes AST, ALT, which are frequently elevated in PMM2-CDG, were monitored both as part of a safety study and as part of monitoring clinical improvement in coagulation. Neurologic improvement was assessed by modified BARS scores in 2 patients (3rd patient was not eligible for the test due to age at the start of the trial). NPCRS was assessed at every visit to assess changes in the severity of the patients' phenotype. Additionally, the frequency of adverse events, changes in vital signs, complete blood count, and changes in BMI were monitored.\n(§2) Two patients were started on epalrestat on single patient investigational new drug (IND) (P5 IRB: 19-010017; IND #145262; P6 Protocol PMM2-CDG-001/A). Epalrestat was initiated on the parents' own initiative in the third patient (P7). Two patients were in their second year of epalrestat treatment, while the third, was in the 3rd year of treatment. Physical, neurological, and biochemical examinations were performed in 3 PMM2-CDG patients at baseline, and at every three months after the start of the epalrestat treatment. Patients underwent NPCRS phenotype severity assessment and biological sampling at every visit. Epalrestat (Ono Pharmaceuticals, Osaka, Japan) was taken orally 3 times per day (TID) before meals in a divided dose, with dosage escalation throughout the treatment. The pharmacological profile of epalrestat was as described elsewhere (Ligezka et al, Ann. Neurol., 90(6):887-900 (2021)). The starting dosage in P5 and P6 was 0.8 mg/kg/day, while P7 was started on 0.5 mg/kg/day due to their young age. P7 dosage was increased to 0.8 mg/day after a month, once safety was established. Blood and urine samples were collected routinely. Urine polyols, carbohydrate deficient transferrin (CDT), anti-thrombin III (ATIII), liver enzymes (ALT, AST), and complete blood count (CBC) were performed. Modified Brief Ataxia Rating Scale was used to assess ataxia in the 2 patients (P5, P6; P7 was not eligible for the test due to age). The modified BARS scale included Archimedes spiral test, but not the abnormalities of the ocular pursuit system and the scale range was 0-54. Goal attainment scale (GAS) was administered as described per study protocol (ClinicalTrials.gov Identifier: NCT04199000). […]"}, "[2]": {"system": "PMM2-CDG", "settings": "Ligezka et al 2021; cited from earlier work"}, "[3]": {"system": "PMM2-CDG patients", "experiment": "Safety and tolerability of epalrestat in pediatric patients", "format": "in vivo, human", "method": "The primary objective of the study was to assess the efficacy and safety of epalrestat treatment in 3 PMM2-CDG pediatric subjects prior to a planned Phase III clinical trial (Oral epalrestat therapy in Pediatric Subjects with PMM2-CDG, NCT04925960). […] The ability of epalrestat to inhibit polyol production was monitored by evaluating urine polyol levels (sorbitol, mannitol), which are elevated in PMM2-CDG. Next, carbohydrate deficient transferrin, which is abnormal in PMM2-CDG, was evaluated in order to assess improvement of glycosylation following epalrestat treatment. […] Changes in the liver enzymes AST, ALT, which are frequently elevated in PMM2-CDG, were monitored both as part of a safety study and as part of monitoring clinical improvement in coagulation. Neurologic improvement was assessed by modified BARS scores in 2 patients (3rd patient was not eligible for the test due to age at the start of the trial). NPCRS was assessed at every visit to assess changes in the severity of the patients' phenotype. Additionally, the frequency of adverse events, changes in vital signs, complete blood count, and changes in BMI were monitored. […]"}, "[4]": {"system": "PMM2-CDG patients", "experiment": "Modified Brief Ataxia Rating Scale (BARS) in patients on epalrestat", "format": "in vivo, human", "excerpt": "as §1, §2"}, "[5]": {"system": "PMM2-CDG patients", "experiment": "Liver enzymes (AST, ALT) in patients on epalrestat", "format": "in vivo, human", "settings": "for ALT: C < 45 U/l; for AST: C: < 50 U/l", "excerpt": "as §1, §2"}, "[6]": {"system": "PMM2-CDG fibroblasts", "settings": "cited from earlier work"}, "[7]": {"system": "PMM", "settings": "patient fibroblasts; cited from earlier work"}}}
{"smiles": "CC(/C=C1\\SC(=S)N(CC(=O)O)C1=O)=C\\c1ccccc1", "note": "[epalrestat]", "values": [{"measurement": "Total NPCRS (max 78)", "setting": "[1]; P5, 12 months, 1.5 mg/kg day, baseline 24", "value": 20}, {"measurement": "Total NPCRS (max 78)", "setting": "[1]; P5, 24 months, 2 mg/kg day, baseline 24", "value": 18}, {"measurement": "Total NPCRS (max 78)", "setting": "[1]; P5, 28 months, 3 mg/kg day, baseline 24", "value": 18}, {"measurement": "Phenotype severity (NPCRS)", "setting": "[1]; P5, P7 improved, words", "value": "improvement was noted in 2 out of 3 patients"}, {"measurement": "Total NPCRS (max 78)", "setting": "[1]; P6, 12 months, 1.5 mg/kg day, baseline 19", "value": 19}, {"measurement": "Total NPCRS (max 78)", "setting": "[1]; P6, 18 months, 3 mg/kg day, baseline 19", "value": 18}, {"measurement": "Total NPCRS (max 78)", "setting": "[1]; P7, 12 months, 1.5 mg/kg day, baseline 18", "value": 15}, {"measurement": "glycosylation in vivo", "setting": "[2]", "value": "improved glycosylation"}, {"measurement": "tolerability of escalating doses", "setting": "[3]; three pediatric patients P5-7", "value": "well-tolerated"}, {"measurement": "side-effects", "setting": "[3]; three pediatric patients P5-7, oral TID, long-term", "value": "No side-effects were observed"}, {"measurement": "Modified BARS (max 54)", "setting": "[4]; P5, 12 months, 1.5 mg/kg day, baseline 39", "value": 29}, {"measurement": "Modified BARS (max 54)", "setting": "[4]; P5, 24 months, 2 mg/kg day, baseline 39", "value": 33}, {"measurement": "Modified BARS (max 54)", "setting": "[4]; P5, 28 months, 3 mg/kg day, baseline 39", "value": 30}, {"measurement": "ataxia (modified BARS scores)", "setting": "[4]; P5, P6, words", "value": "improvement in ataxia"}, {"measurement": "Modified BARS (max 54)", "setting": "[4]; P6, 12 months, 1.5 mg/kg day, baseline 45", "value": 29}, {"measurement": "Modified BARS (max 54)", "setting": "[4]; P6, 18 months, 3 mg/kg day, baseline 45", "value": 27}, {"measurement": "ALT", "setting": "[5]; P5, 12 months, 1.5 mg/kg day, baseline 23", "value": 24, "unit": "U/L"}, {"measurement": "AST", "setting": "[5]; P5, 12 months, 1.5 mg/kg day, baseline 48", "value": 37, "unit": "U/L"}, {"measurement": "ALT", "setting": "[5]; P5, 24 months, 2 mg/kg day, baseline 23", "value": 25, "unit": "U/L"}, {"measurement": "AST", "setting": "[5]; P5, 24 months, 2 mg/kg day, baseline 48", "value": 34, "unit": "U/L"}, {"measurement": "ALT", "setting": "[5]; P5, 28 months, 3 mg/kg day, baseline 23", "value": 25, "unit": "U/L"}, {"measurement": "AST", "setting": "[5]; P5, 28 months, 3 mg/kg day, baseline 48", "value": 40, "unit": "U/L"}, {"measurement": "liver transaminase levels", "setting": "[5]; P5-P7, words", "value": "improvement"}, {"measurement": "AST", "setting": "[5]; P6, 12 months, 1.5 mg/kg day, baseline 58", "value": 40, "unit": "U/L"}, {"measurement": "ALT", "setting": "[5]; P6, 12 months, 1.5 mg/kg day, baseline 67", "value": 32, "unit": "U/L"}, {"measurement": "AST", "setting": "[5]; P6, 18 months, 3 mg/kg day, baseline 58", "value": 38, "unit": "U/L"}, {"measurement": "ALT", "setting": "[5]; P6, 18 months, 3 mg/kg day, baseline 67", "value": 49, "unit": "U/L"}, {"measurement": "AST", "setting": "[5]; P7, 12 months, 1.5 mg/kg day, baseline 548", "value": 80, "unit": "U/L"}, {"measurement": "ALT", "setting": "[5]; P7, 12 months, 1.5 mg/kg day, baseline 997", "value": 105, "unit": "U/L"}, {"measurement": "overall glycosylation as assessed by glycoproteomics", "setting": "[6]; PMM2-CDG fibroblasts", "value": "overall glycosylation improvement"}, {"measurement": "glycosylation in vitro", "setting": "[6]; PMM2-CDG, Ligezka et al 2021", "value": "improved glycosylation"}, {"measurement": "PMM enzymatic activity", "setting": "[7]", "value": "increase"}]}
